This is an account of results in PMC7802075 (ACS Infectious Diseases, 2020).

Where a SMILES comes first, the peptide text is derived from it.

In one assay the target is T1, LmjIPCS (inositol phosphorylceramide synthase from L. major) (Leishmania major, UniProt E9AFX2).
T1 sequence (E9AFX2 1-338): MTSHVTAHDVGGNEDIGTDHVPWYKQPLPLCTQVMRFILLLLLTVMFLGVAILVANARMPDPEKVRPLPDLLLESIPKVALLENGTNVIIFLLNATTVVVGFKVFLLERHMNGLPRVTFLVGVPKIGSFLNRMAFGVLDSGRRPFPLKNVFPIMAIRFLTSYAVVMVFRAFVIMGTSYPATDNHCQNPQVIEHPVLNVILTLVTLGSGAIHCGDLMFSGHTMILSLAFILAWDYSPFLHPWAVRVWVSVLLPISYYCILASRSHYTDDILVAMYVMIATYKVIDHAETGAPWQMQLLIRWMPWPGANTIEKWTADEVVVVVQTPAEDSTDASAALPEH
Briefly: biochemical. Also noted: inhibition: dose or concentration left out as unconfirmed. The format is biochemical.
Settings: not given
With `O=C1C=CC(=O)c2c(O)cccc21` [JUGLONE], the “20mM inhibition LmjIPCS” value was determined as 48%. Same read-out and setting: the figure for `NC[C@H]1O[C@H](O[C@H]2[C@H](O)[C@@H](O[C@H]3O[C@H](CO)[C@@H](O)[C@H](N)[C@H]3O)[C@H](N)C[C@@H]2N)[C@H](O)[C@@H](O)[C@@H]1O` [KANAMYCIN] is 26%; for `CC(=O)N1CCN(c2ccc(OCC3COC(Cn4ccnc4)(c4ccc(Cl)cc4Cl)O3)cc2)CC1` (centres unmarked) [KETOCONAZOLE] it is 69%; for `CN1CCC(=C2c3ccccc3CC(=O)c3sccc32)CC1` [KETOTIFEN] it is 36%. Still for that read-out and setting: the figure for `CC(C)C[C@H](N)C(=O)N[C@@H](C)C(=O)O` [L-LEUCYL-L-ALANINE] (H-Leu-Ala-OH) is 5.46%; for `CC(CCc1ccccc1)NCC(O)c1ccc(O)c(C(N)=O)c1` (centres unmarked) [LABETALOL] it is 50%.

For the compound `Cc1oncc1C(=O)Nc1ccc(C(F)(F)F)cc1` [LEFUNOMIDE], the “20mM inhibition LmjIPCS” value is on record as 10%. The same measure, in the same setting: the same measure for `CN1[C@@H](CC(=O)c2ccccc2)CCC[C@H]1C[C@H](O)c1ccccc1` [LOBELINE]: 38%; for `CC[C@H](C)C(=O)O[C@H]1C[C@@H](C)C=C2C=C[C@H](C)[C@H](CC[C@@H]3C[C@@H](O)CC(=O)O3)[C@H]21` [LOVASTATIN]: 41%. The same measure, in the same setting: the same measure for `CN1CCN(C2=Nc3ccccc3Oc3ccc(Cl)cc32)CC1` [LOXAPINE]: 68%. With `CCN(CCCCOC(=O)c1ccc(OC)c(OC)c1)C(C)Cc1ccc(OC)cc1` (centres unmarked) [MEBEVERINE], the “20mM inhibition LmjIPCS” value worked out at 54%.

In the case of `OC(c1cc(C(F)(F)F)nc2c(C(F)(F)F)cccc12)C1CCCCN1` (centres unmarked) [MEFLOQUINE], the “20mM inhibition LmjIPCS” value is given as 49%. Still for that read-out and setting: the figure for `CC1=CC(=O)c2ccccc2C1=O` [MENADIONE] is 43%; for `Cc1cccc(C)c1NC(=O)C1CCCCN1C` (centres unmarked) [MEPIVACAINE] it is 55%. Same read-out and setting: the figure for `C[C@H](N)[C@H](O)c1cccc(O)c1` [METARAMINOL] is 58%.

The same assay, now with this note: NINDS set screen, compound at 20mM (so in the source).
Regarding `Cc1c(OCC(F)(F)F)ccnc1C[S+]([O-])c1nc2ccccc2[nH]1` (centres unmarked) [LANSOPRAZOLE], the “20mM inhibition LmjIPCS” value amounted to 23%.

The assay is the same for the next values; noted with them: NINDS set screen, single concentration printed as 20mM.
In the case of `CC[C@@H](C(=O)[C@@H](C)[C@@H](O)[C@H](C)CCc1ccc(C)c(O)c1C(=O)[O-])[C@H]1O[C@](CC)([C@H]2CC[C@](O)(CC)[C@H](C)O2)C[C@@H]1C.[Na+]` [LASALOCID SODIUM], the “20mM inhibition LmjIPCS” value is listed as 41%. On the same count and under the same terms, the same measure for `C=C1c2c(Cl)ccc(O)c2C(=O)C2=C(O)[C@]3(O)C(=O)C(C(N)=O)=C(O)[C@@H](N(C)C)[C@@H]3[C@@H](O)[C@H]12` [MECLOCYCLINE]: 67%; for `CC12CC3CC(C)(C1)CC(N)(C3)C2` [MEMANTINE]: 66%. On the same count and under the same terms, the figure for `CSc1ccc2c(c1)C(N1CCN(C)CC1)Cc1ccccc1S2` (centres unmarked) [METHIOTHEPIN] is 55%.

The assay is the same for the next values; noted with them: NINDS set screen; read-out: inhibition LmjIPCS.
In general, inhibition refers to the change of the read-out against control, counted positive when it falls. For `O=C(c1ccccc1)c1ccc2n1CCC2C(=O)O` (centres unmarked) [KETOROLAC], the inhibition amounted to 20%.

As for `Nc1nc2c(c(=O)[nH]1)N(C=O)C(CNc1ccc(C(=O)N[C@@H](CCC(=O)O)C(=O)O)cc1)CN2` (some centres unmarked) [LEUCOVORIN], the inhibition is 17%. On the same count and under the same terms, the figure for `CNC1(C)C2CCC(C2)C1(C)C` (centres unmarked) [MECAMYLAMINE] is 17%.

For `CC(=O)O[C@]1(C(C)=O)CC[C@H]2[C@@H]3C[C@H](C)C4=CC(=O)CC[C@]4(C)[C@H]3CC[C@@]21C` [MEDROXYPROGESTERONE ACETATE], the inhibition stood at 17%. The same measure, in the same setting: the same measure for `Cc1cccc(Nc2ccccc2C(=O)O)c1C` [MEFENAMIC ACID]: -9%; for `CCN(CC)CCNC(=O)COc1ccc(OC)cc1` [MEFEXAMIDE]: 13%. On the same count and under the same terms, the same measure for `Cc1cc(C)cc(OCC2CNC(=O)O2)c1` (centres unmarked) [METAXALONE]: -4.75%. Still for that read-out and setting: the same measure for `CC(=O)/N=c1/sc(S(N)(=O)=O)nn1C` [METHAZOLAMIDE]: -4.59%; for `Cn1cc[nH]c1=S` [METHIMAZOLE]: 13%.

The same assay, now with this note: read-out: 20mM inhibition LmjIPCS.
For the compound `Cc1cc(NC(=O)C2=C(O)c3ccccc3S(=O)(=O)N2C)no1` [ISOXICAM], the inhibition at 20000 µM is -3%. Same read-out and setting: the figure for `CC(COc1ccccc1)NC(C)C(O)c1ccc(O)cc1` (centres unmarked) [ISOXSUPRINE] is 32%. The same measure, in the same setting: the figure for `C=C(C)[C@H]1CN[C@H](C(=O)O)[C@H]1CC(=O)O` [KAINIC ACID] is 14%.

On to `O=C(O)c1cc(=O)c2ccccc2[nH]1` [KYNURENIC ACID], for which the inhibition at 20000 µM amounted to 6%.

`N[C@H](CO)Cc1ccccc1` [L-PHENYLALANINOL]: the inhibition at 20000 µM came to 24%.

For `CC(C)=CCC1=C(O)C(=O)c2ccccc2C1=O` [LAPACHOL], the inhibition at 20000 µM worked out at 5.55%. Still for that read-out and setting: the figure for `c1ccc([C@H]2CN3CCSC3=N2)cc1` [LEVAMISOLE] is 2.52%. Same read-out and setting: the same measure for `C[C@H](N)[C@H](O)c1ccc(O)c(O)c1` [LEVONORDEFRIN]: 16%.

With `CCN(CC)CC(=O)Nc1c(C)cccc1C` [LIDOCAINE], the inhibition at 20000 µM turned out to be 2.47%. On the same count and under the same terms, the figure for `CCC[C@@H]1C[C@@H](C(=O)N[C@@H]([C@H]2O[C@H](SC)[C@H](O)[C@@H](O)[C@H]2O)[C@@H](C)O)N(C)C1` [LINCOMYCIN] is 8.53%; for `CCOC(=O)N1CCC(=C2c3ccc(Cl)cc3CCc3cccnc32)CC1` [LORATADINE] it is 21%.

Regarding `OC[C@@H]1CCCN2CCCC[C@H]12` [LUPININE], the inhibition at 20000 µM is 11%. Consider `NCCCC[C@H](N)C(=O)N[C@@H](Cc1ccccc1)C(=O)N[C@@H](Cc1ccc(O)cc1)C(=O)O` [LYSYLPHENYLALANYLTYROSINE] (H-Lys-Phe-Tyr-OH), for which the inhibition at 20000 µM was determined as 4.61%. For `NCc1ccc(S(N)(=O)=O)cc1` [MAFENIDE], the inhibition at 20000 µM came to 11%. On the same count and under the same terms, the same measure for `Cc1ccc(Cl)c(Nc2ccccc2C(=O)O)c1Cl` [MECLOFENAMATE]: 6%. For `CC(=O)[C@H]1CC[C@H]2[C@@H]3C[C@H](C)C4=CC(=O)CC[C@]4(C)[C@H]3[C@@H](O)C[C@]12C` [MEDRYSONE], the inhibition at 20000 µM came out at 14%. With `CC(=O)O[C@]1(C(C)=O)CC[C@H]2[C@@H]3C=C(C)C4=CC(=O)CC[C@]4(C)[C@H]3CC[C@@]21C` [MEGESTROL ACETATE], the inhibition at 20000 µM was determined as 15%. In the case of `C[N+]1(C)CCCC(OC(=O)C(O)(c2ccccc2)c2ccccc2)C1` (centres unmarked) [MEPENZOLATE BROMIDE], the inhibition at 20000 µM worked out at 16%.

On to `CNC(C)(C)Cc1ccccc1` [MEPHENTERMINE], for which the inhibition at 20000 µM worked out at 22%. Still for that read-out and setting: the same measure for `O=S(=O)(O)CCS` [MESNA]: -0.783%. The same measure, in the same setting: the figure for `CC(C)NCC(O)c1cc(O)cc(O)c1` (centres unmarked) [METAPROTERENOL] is 7%; for `CC(=O)OC(C)C[N+](C)(C)C` (centres unmarked) [METHACHOLINE CHLORIDE] it is -18%; for `C=C1c2cccc(O)c2C(=O)C2=C(O)[C@]3(O)C(=O)C(C(N)=O)=C(O)[C@@H](N(C)C)[C@@H]3[C@@H](O)[C@H]12` [METHACYCLINE] it is 33%. Still for that read-out and setting: the same measure for `COc1cccc(OC)c1C(=O)N[C@@H]1C(=O)N2[C@@H]1SC(C)(C)[C@@H]2C(=O)O` [METHICILLIN]: 17%; for `COc1ccccc1OCC(O)COC(N)=O` (centres unmarked) [METHOCARBAMOL]: 13%.

The assay is the same for the next values; noted with them: read-out: inhibition LmjIPCS.
With `c1coc(CNc2ncnc3[nH]cnc23)c1` [KINETIN], the inhibition turned out to be 16%. Same read-out and setting: the same measure for `O=c1cc(CO)occ1O` [KOJIC ACID]: 11%; for `N[C@@H](Cc1ccc(O)c(O)c1)C(=O)O` [LEVODOPA]: 21%; for `C[C@H]1COc2c(N3CCN(C)CC3)c(F)cc3c(=O)c(C(=O)O)cn1c23` [LEVOFLOXACIN]: 11%. On the same count and under the same terms, the same measure for `NCCCC[C@H](N[C@@H](CCc1ccccc1)C(=O)O)C(=O)N1CCC[C@H]1C(=O)O` [LISINOPRIL]: 6%. The same measure, in the same setting: the same measure for `CCn1cc(C(=O)O)c(=O)c2cc(F)c(N3CCNC(C)C3)c(F)c21` (centres unmarked) [LOMEFLOXACIN]: 4%; for `CCCCc1nc(Cl)c(CO)n1Cc1ccc(-c2ccccc2-c2nn[nH]n2)cc1` [LOSARTAN]: -2.81%. For the compound `C[C@H]1[C@H](C)CC[C@]2(C(=O)O)CC[C@]3(C)C(=CC[C@@H]4[C@@]5(C)C[C@@H](O)[C@H](O)[C@@](C)(CO)[C@@H]5[C@H](O)C[C@]43C)[C@H]12` [MADECASSIC ACID], the inhibition was found to be 10%.

Regarding `COC(=O)Nc1nc2ccc(C(=O)c3ccccc3)cc2[nH]1` [MEBENDAZOLE], the inhibition is 18%. The same measure, in the same setting: the figure for `COc1ccc2[nH]cc(CCNC(C)=O)c2c1` [MELATONIN] is -5.63%; for `Cc1cnc(NC(=O)C2=C(O)c3ccccc3S(=O)(=O)N2C)s1` [MELOXICAM] it is 11%; for `CN1C[C@H](CNC(=O)OCc2ccccc2)C[C@@H]2c3cccc4c3c(cn4C)C[C@H]21` [METERGOLINE] it is 11%.

Still in this assay, the particulars now being: screening of NINDS set, sheet Screen 1; read-out: inhibition LmjIPCS.
As to `Cc1ccccc1OCC(O)CO` (centres unmarked) [MEPHENESIN], the inhibition was determined as 3.35%. `S=c1[nH]cnc2nc[nH]c12` [MERCAPTOPURINE]: the inhibition was determined as 6%.

As to `C=N[C@@H](C(=O)N[C@@H]1C(=O)N2[C@@H]1SC(C)(C)[C@@H]2C(=O)O)c1ccccc1` [METAMPICILLIN], the inhibition was found to be 10%.

Consider `C1N2CN3CN1CN(C2)C3` [METHENAMINE], for which the inhibition came to 6%.

The assay is the same for the next values; noted with them: single concentration 20mM as printed; screening of NINDS set, sheet Screen 1.
With `CC1CCC(C(C)C)C(O)C1` (stereo not drawn) [MENTHOL(-)], the “20mM inhibition LmjIPCS” value is given as 4%.
